Reference: patent publication US8242126B2, “Quinazolinedione derivatives, preparation thereof and therapeutic uses thereof” (Sanofi, priority 2007, dated 2012)
Read-outs that look alike come from different tables or passages of the source.

What was measured:
PBMCs of normal subjects = conditions: cited from earlier work
CLL-PBMCs = conditions: PBMCs of patients suffering from chronic lymphocytic leukaemia; cited from earlier work
[1] = tested on: Human peripheral blood mononuclear cells (PBMNCs); test: Inhibition of T cell proliferation: [3H]-thymidine incorporation in PBMNCs activated by anti-CD3 and anti-CD28; assay type: cell-based; conditions: PBMC, 72 h + 8 h [3H]-thymidine, mean of the three experiments
Method: Human peripheral blood mononuclear cells (PBMNCs) were separated from the blood of healthy donors using a centrifuging gradient on a Ficoll-Paque™ Plus (GE Healthcare Bio-Sciences AB code 17-1440-03, Uppsala). A mixture of 5.0 ml of blood and 5.0 ml of phosphate buffered saline (PBS Gibco 14190) was deposited on 10.0 ml of Ficoll-Paque in a 50 ml Blue max tube (Becton Dickinson 352070) and centrifuged with 900 g for 30 min. The band of PBMNCs was withdrawn, washed in PBS and then centrifuged with 900 g for 10 minutes. Finally, the PBMNCs were suspended (2.5×10^5 cells/ml) in an RPMI 1640 complete medium+Glutamax (Gibco 61870) additivated with 10% of FCS, the complement of which has been heat inactivated, and with penicillin-streptomycin (Gibco 15140).
The PBMNCs were cultured in flat-bottomed 96-well plates, in a proportion of 0.5×10^5 cells/well in 200 μl of RPMI 1640 complete medium. The cells were activated by two monoclonal antibodies, one of anti-CD3 specificity, 20 ng/ml (Pharmingen 555329), and the other of anti-CD28 specificity, 200 ng/ml (Pharmingen 555725), in the presence of PDE7 inhibitors at five different concentrations, 10 μM, 3.3 μM, 1.1 μM, 0.36 μM and 0.12 μM, or of cyclosporin A, which acts as positive control of the halting of proliferation. […] After incubating for an additional 8 hours, the PBMNCs were collected on a Tomtec cell collector (Wallac) using a glass fibre filter (Wallac 1450-421), and incorporation of the [^3H]-thymidine in the nucleus of the cells was measured using a Microbeta 1450-Trilux (Wallac). The inhibition of the proliferation, expressed as percentage, was calculated using the following equation: 100−(cpm mean value of the cells in the presence of the compound/cpm mean value of the cells in the absence of the compound)×100. […]

Human PDE7 = molecular target: T1, Human PDE7 (Homo sapiens, UniProt Q13946); test: PDE7 enzymatic assay (radioactive cAMP / 5′-AMP separation by TLC on PEI cellulose); assay type: biochemical
T1 construct: Human PDE7 was partially purified from the HUT-78 cell line; endogenous in cells
Method: The ability of the compounds of formula (I) to inhibit PDE7 is measured using an enzymatic assay based on the separation of radioactive cAMP (substrate of PDE7) from the radioactive 5′-AMP (product of the enzymatic reaction) by thin layer chromatography on polyethyleneimine (PEI) cellulose, after halting the enzymatic reaction. The 5′-AMP is extracted quantitatively from the PEI cellulose and its radioactivity is measured using a liquid scintillation counter.
The inhibitory activity of the compounds of formula (I) with regard to PDE7 is represented by the inhibition constant IC50, defined as the concentration of the compound (inhibitor) tested in the assay which makes it possible to reduce the enzymatic activity of PDE7 by 50%. The lower the IC50 values, the greater the inhibitory power of the compounds.
Human PDE7 was partially purified from the HUT-78 cell line by following a method analogous to that described by Bloom and Beavo (Proc. Natl. Acad. Sci. USA, (1996) 93, 14188-14192). The enzyme preparation obtained is stored at −80° C. in a buffer comprising 20 mM of Tris-HCl (pH 7.0), 5 mM of MgCl2, 4 mM of EDTA, 1 mM of dithiothreitol and 20% of glycerol. […] The Michaelis constant (Km) of PDE7 for cAMP, measured using the radiochemical assay described below, is 21 nM.
The compounds of formula (I) to be tested as PDE7 inhibitors are dissolved in DMSO at a concentration of 10 mM. These solutions are subsequently diluted in cascade in DMSO in order to obtain solutions with the desired concentrations. The latter are subsequently diluted to one-twentieth in the assay buffer to give 5% DMSO solutions. The latter are finally diluted to one-fifth in the enzymatic assay.
The assay is carried out in 1.5 ml Eppendorf tubes comprising 40 mM of Tris-HCl (pH 7.5), 15 mM of MgCl2, 1 mM of EGTA, 0.5 mg/ml of bovine serum albumin, […] of [^3H]-cAMP (corresponding to a cAMP concentration of between 15 and 25 nM), 10 μM of rolipram and PDE7 in a final volume of 100 μl. The assay is carried out in the absence (control sample) or in the presence (treated sample) of the compounds tested as PDE7 inhibitors. The final concentration of DMSO in the assay is 2%. The reaction is initiated by addition of enzyme and the samples are maintained at ambient temperature for 30 minutes. The enzymatic dilution is adjusted so as to obtain a degree of conversion of 10 to 15%. The enzymatic reaction is halted by immersion of the stoppered Eppendorf tubes in a water bath at 100° C. for 3 minutes. Blanks (reaction halted immediately after addition of the enzyme) are included in each experiment. The samples are subsequently centrifuged at 10 000×g for 1 minute and an aliquot portion of 10 μl of supernatant is deposited 2 cm from the bottom edge of a sheet of PEI cellulose on which 10 μg of cAMP and 10 μg of 5′-AMP have been deposited beforehand. In order to facilitate the migration and to make it easier to cut out the strips of PEI cellulose comprising the 5′-AMP, which take place subsequently, 18 migration lanes with a width of 1 cm are delimited per plate by scraping the cellulose with a spatula over a width of 1 mm. The plates are developed over their entire length with a 0.30 M solution of LiCl in water by ascending chromatography. The 5′-AMP (Rf=0.20) and the cAMP (Rf=0.47) are visualized under UV light at 254 nm. The strips of PEI cellulose comprising the 5′-AMP are cut out and the nucleotide is quantitatively extracted in counting flasks with 2 ml of a solution which is 16M in formic acid and 2M in ammonium formate in water (rotary stirrer for 15 min). After addition of 10 ml of scintillation liquid (OptiPhase HiSafe 3 from Perkin-Elmer/Wallac), the radioactivity is counted using a liquid scintillation counter (model 1414, Perkin-Elmer/Wallac). Each assay is carried out in duplicate. […]

PDE8 = PDE8 enzymatic assay equivalent to that described for PDE7; assay type: biochemical
[2] = human PDE7 partially purified from HUT-78 cells, 10 μM rolipram present, read-out: IC50 (inhibition of PDE7)
[3] = table comparing PDE7 and PDE8, read-out: IC50 PDE7

T1 sequence (Q13946 whole entry): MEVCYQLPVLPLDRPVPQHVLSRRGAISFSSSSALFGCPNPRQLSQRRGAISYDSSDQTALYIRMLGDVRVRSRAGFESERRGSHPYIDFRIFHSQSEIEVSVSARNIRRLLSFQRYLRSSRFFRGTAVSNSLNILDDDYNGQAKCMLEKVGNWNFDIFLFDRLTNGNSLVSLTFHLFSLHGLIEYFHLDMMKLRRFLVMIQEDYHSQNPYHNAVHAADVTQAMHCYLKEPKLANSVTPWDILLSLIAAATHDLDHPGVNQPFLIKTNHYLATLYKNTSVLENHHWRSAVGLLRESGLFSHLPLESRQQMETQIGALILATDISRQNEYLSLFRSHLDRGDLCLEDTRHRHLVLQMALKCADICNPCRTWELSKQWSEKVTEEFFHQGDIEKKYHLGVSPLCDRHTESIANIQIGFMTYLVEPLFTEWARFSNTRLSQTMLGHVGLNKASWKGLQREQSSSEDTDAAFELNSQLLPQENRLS

| IC50 (Human PDE7; [2]) [nM] | Compound | IC50 [1] [nM] | also measured |
| --- | --- | --- | --- |
|  | Cc1ccc([N+](=O)[O-])cc1S(=O)(=O)N(C)C [BRL-50481] |  | effect on PBMCs of normal subjects (PBMCs of normal subjects): without effect; apoptosis of CLL-PBMCs (CLL-PBMCs): induces in a dose-dependent way the apoptosis |
|  | COc1ccc(Cn2c(=O)c3cc(OC(C)C#N)ccc3n(C3CCN(C=O)CC3)c2=O)cc1OC (stereo not drawn) [No. 1, 2-{[3-(3,4-dimethoxybenzyl)-1-(1-formylpiperidin-4-yl)-2,4-dioxo-1,2,3,4-tetrahydroquinazolin-6-yl]oxy}propanenitrile] | 400 |  |
| 39 | COc1ccc(Cn2c(=O)c3cc(OC(CF)CF)ccc3n(C3CCN(C=O)CC3)c2=O)cc1OC [No. 11, 4-[3-(3,4-dimethoxybenzyl)-6-[2-fluoro-1-(fluoromethyl)ethoxy]-2,4-dioxo-3,4-dihydroquinazolin-1(2H)-yl]piperidine-1-carbaldehyde] | 900 | IC50 (PDE8): 140 nM |
| 15 | COc1ccc(Cn2c(=O)c3cc(OCC(F)F)ccc3n(C3CCN(C=O)CC3)c2=O)cc1OC [No. 16, 4-[6-(2,2-difluoroethoxy)-3-(3,4-dimethoxybenzyl)-2,4-dioxo-3,4-dihydroquinazolin-1(2H)-yl]piperidine-1-carbaldehyde] | 1300 |  |
| 89 | COc1ccc(Cn2c(=O)c3cc(OCCO)ccc3n(C3CCN(C=O)CC3)c2=O)cc1OC [No. 72, 4-[3-(3,4-dimethoxybenzyl)-6-(2-hydroxyethoxy)-2,4-dioxo-3,4-dihydroquinazolin-1(2H)-yl]piperidine-1-carbaldehyde] |  |  |
| 820 | COc1ccc(Cn2c(=O)c3cc(CNC(C)=O)ccc3n(C3CCN(C=O)C3)c2=O)cc1OC (stereo not drawn) [No. 77, N-{[3-(3,4-dimethoxybenzyl)-1-(1-formylpyrrolidin-3-yl)-2,4-dioxo-1,2,3,4-tetrahydroquinazolin-6-yl]methyl}acetamide] |  |  |
| 61 | COc1ccc(Cn2c(=O)c3c(Cl)cc(Cl)cc3n(C3CCN(C=O)CC3)c2=O)cc1OC [No. 97, 4-[5,7-dichloro-3-(3,4-dimethoxybenzyl)-2,4-dioxo-3,4-dihydroquinazolin-1(2H)-yl]piperidine-1-carbaldehyde] |  |  |
| 6.7 | COc1ccc(Cn2c(=O)c3cc(OC(F)F)ccc3n(C3CCN(C=O)CC3)c2=O)cc1OC [No. 111, 4-[6-(difluoromethoxy)-3-(3,4-dimethoxybenzyl)-2,4-dioxo-3,4-dihydroquinazolin-1(2H)-yl]piperidine-1-carbaldehyde] |  |  |
|  | COc1cc(Cn2c(=O)c3cc(OC(CF)CF)ccc3n(C3CCN(C=O)CC3)c2=O)ccc1OCC(=O)N1CCCCC1 [No. 251, 4-{6-[2-fluoro-1-(fluoromethyl)ethoxy]-3-[3-methoxy-4-(2-oxo-2-(piperidin-1-yl)ethoxy)benzyl]-2,4-dioxo-3,4-dihydroquinazolin-1(2H)-yl}piperidine-1-carbaldehyde] |  | IC50 (Human PDE7; [3]): 46 nM |
|  | N#Cc1cc(Cn2c(=O)c3cc(OC(CF)CF)ccc3n(C3CCN(C=O)CC3)c2=O)ccc1-c1ccccc1 [No. 294, 4-({6-[2-fluoro-1-(fluoromethyl)ethoxy]-1-(1-formylpiperidin-4-yl)-2,4-dioxo-1,4-dihydroquinazolin-3(2H)-yl}methyl)biphenyl-2-carbonitrile] |  | IC50 (Human PDE7; [3]): 37 nM; IC50 (PDE8): 15 nM |
